The test system of the experiment is lymphocytes isolated from Balb/C mice. In words: lymphocyte cell proliferation assay. Type of experiment: cell-based. As to conditions: LPS at 1 μg/ml (table prints concentration n/a). The procedure: The effects of the ginseng extracts produced during these studies, on cell proliferation of lymphocytes isolated from Balb/C mice were assessed by the methods disclosed in Chapters 2 and 3 in Current Protocols in Immunology, (Coligan et al., Eds, 2007, John Wiley & Sons). A first positive control was lipopolysaccharide (LPS) at a concentration of 1 μg/ml. LPS (Prod. L4641) was supplied by Sigma-Aldrich Canada (Oakville, ON, Canada). A commercially available poly-furanosyl-pyranosyl-saccharide-rich ginseng extract, Cold-FX® (Cold-FX is a registered trademark of CV Technologies Inc., Edmonton, Alberta, Canada), was obtained from a local supermarket, and was used for comparison as a second positive control. The effects of the positive controls and the ginseng extracts produced by the three studies described herein on cell proliferation are shown in Table 1. […]
The bioactivity of the dried ginseng extract produced with the pilot scale process disclosed herein was assessed using the assay, related methods, positive and negative controls as described in Example 1.
The biological activity of the dried ginseng extracts produced from alcohol-washed dried ginseng meal during the first study of this example was assessed using the assay and methods described in Example 1, and the results compared to the positive control #2 described in Example 1.

With “lipopolysaccharide [Positive control #1 (LPS)]”, the “Optical Density (lymphocyte cell proliferation)” value was 0.361.

The values are drawn from patent US8092842B2, “Extraction of phytochemicals by enzymatic hydrolysis” (Pos Pilot Plant Corporation, priority 2007, dated 2012).
